{
  "source": "paper PMC10424179",
  "about": "“Disrupting Kaposi’s Sarcoma-Associated Herpesvirus (KSHV) Latent Replication with a Small Molecule Inhibitor” (Journal of Medicinal Chemistry, 2023)",
  "key": {"[1]": {"molecular_target": "LANA–DNA interaction (oligomerization-deficient LANA DBD aa 1008–1146 mutant / LBS1) (Human herpesvirus 8 (Kaposi's sarcoma-associated herpesvirus), UniProt Q76SB0)", "assay": "Electrophoretic mobility shift assay (EMSA), LANA DBD mutant with LBS1 oligonucleotide", "assay_type": "biochemical, Kaposi's sarcoma-associated herpesvirus (KSHV)", "method": "In these assays, an oligomerization-deficient mutant of a LANA C-terminal protein fragment (aa 1008–1146) and an oligonucleotide representing LANA-binding site (LBS) 1 were used, which are convenient to use and handle for the described biophysical methods, while maintaining the essential DNA-binding interface.[25]\nEquation y = A2 + (A1-A2)/(1 + (x/x0)^p) […]\n(§1) 1.4 Electrophoretic Mobility Shift Assay (EMSA)\n(§2) The EMSA was carried out with slight modific ations as described previously 2 based on the assay in Hellert et al. (2013). 3 His-tagged oligomerization-deficient LANA DBD (aa1008-1146) mutant protein or LANA DBD (aa934-1162) wild type protein (200 nM final) was incubated with a 5´-Dy682-labeled double stranded DNA probe (IBA Lifesciences) (20 nM final) for 30 minutes at RT in the dark. The reaction buffer consisted of 30 mM Tris HCl pH 7.5, 50 mM KCl, 10 mM MgCl2, 1 mM DTT, 1 mM EDTA, 10% glycerol, 0.25% Tween20, 0.5 mg/mL BSA and 0.05 mg/mL poly(dI-dC). […]\n(§3) dark. 10 µL of the reaction was run on a pre -run native 5% acrylamide gel for 45 minutes at 100V with tris-borate-EDTA buffer. Images of the gels were acquired and analysed with the Odyssey (Licor) using the Image Studio software.\n(§4) Fig S2: Gels of EMSA experiments at 250 μM for all compounds (A) and dose-dependent curves for compound 20 using LANA DBD mutant (B) and LANA wildtype (C) as well as LBS1. Values are means […]\n(§5) Gleichung y = A2 + (A1-A2)/(1 + (x/x0)^p) […]"}, "Kinetic solubility": {"assay": "Kinetic solubility", "assay_type": "physicochemical", "conditions": "PBS with 1% DMSO; 1% DMSO in PBS, pH 7.4", "method": "(§6) The next step was an in vitro ADMET profiling of the best seven compounds so far: 9, 11, 14, 19, 20, 21, and 27. The compounds were tested for their kinetic solubility (1% DMSO in PBS, pH 7.4), lipophilicity (chromatographic Log D7.4 value), cellular permeability (using Caco-2 cells), and metabolic stability (using mouse and human liver S9 fractions) (see Table 3).\nThe desired compounds were sequentially diluted in DMSO in a 96-well plate. 1.5 µL of each well were transferred into another 96-well plate and mixed with 148.5 µL of PBS. Plates were shaken for 5 min at 600 rpm at room temperature (r.t.), and the absorbance at 620 nm was measured. Absorbance values were normalized by blank subtraction and plotted using GraphPad Prism 8.4.2 (GraphPad Software, San Diego, CA, USA). Solubility (S) was determined based on the First X value of AUC function using a threshold of 0.005. […]"}, "Chromatographic LogD7.4": {"assay": "Chromatographic LogD7.4", "assay_type": "physicochemical", "conditions": "reversed-phase HPLC, NUCLEODUR C18 Pyramid column; pH 7.4, HPLC-MS based; read-out: Chrom. LogD7.4", "method": "as §6, with “3). […]” for “3).”\nLogD7.4 was analyzed using an HPLC−MS based method. The retention time of 12 compounds with known LogD7.4 was determined and plotted toward their LogD7.4. Linear regression was used to determine the LogD7.4 of unknown compounds. Analysis was performed using a Dionex Ultimate 3000 HPLC system coupled to a TSQ Quantum Access MAX (Thermo Fisher, Dreieich, Germany) with the following conditions: EC150/2 NUCLEODUR C18 Pyramid column, 5 μM (Macherey Nagel, Düren, Germany); eluent A: 50 mM NH4OAc pH 7.4, eluent B: acetonitrile, and flow: 0.6 mL/min. The gradient was set to 0−100% B from 0 to 2.5 min, […]\nare means of two replicates. […]"}, "[2]": {"molecular_target": "T1, LANA–DNA interaction (LANA DBD aa934-1162 wild type / LBS1) (Human herpesvirus 8 type P, UniProt Q9QR71)", "T1 construct": "LANA DBD (aa934-1162) wild type protein (200 nM final) was incubated with", "T1 sequence (Q9QR71 901-1129)": "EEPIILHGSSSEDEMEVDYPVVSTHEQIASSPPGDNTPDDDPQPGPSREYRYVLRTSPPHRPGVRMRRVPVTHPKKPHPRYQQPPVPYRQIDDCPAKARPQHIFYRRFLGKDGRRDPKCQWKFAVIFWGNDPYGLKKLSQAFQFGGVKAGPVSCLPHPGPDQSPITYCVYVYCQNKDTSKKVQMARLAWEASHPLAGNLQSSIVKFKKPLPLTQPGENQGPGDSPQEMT", "assay": "EMSA, LANA DBD wild type with LBS1", "assay_type": "biochemical, Kaposi's sarcoma-associated herpesvirus (KSHV)", "method": "Equation y = A2 + (A1-A2)/(1 + (x/x0)^p)\nFig S1: Binding affinity curves via MST for all compounds. Values are means of at least three replicates.\nas §1, §2, §3, §4, §5"}, "[3]": {"assay": "Metabolic stability in mouse liver S9 fraction", "assay_type": "in vitro ADME", "conditions": "pooled liver S9 fraction, mouse liver S9, 1 μM compound", "method": "as §6, with “3). […]” for “3).”\n(§7) 1.7 Metabolic Stability in Liver S9 Fractions\n(§8) For the evaluation of combined phase I and phase II metabolic stability, the compound (1 μM) was incubated with 1 mg/mL pooled mouse liver S9 fraction (Xenotech, Kansas City, USA) or human liver S9 fraction (Corning, USA), 2 mM NADPH, 1 mM UDPGA, 10 mM MgCl 2, 5 mM GSH and 0.1 mM PAPS at 37 °C for 240 min. The metabolic stability of testosterone, verapamil and ketoconazole were determined in parallel to confirm the enzymatic activity of mouse S9 fractions, for human S9 testosterone, diclofenac and propranolol were used. The incubation was stopped after defined time points by precipitation of aliquots of S9 enzymes with 2 volumes of cold acetonitrile containing internal standard (150 nM diphenhydramine). Samples were stored on ice until the end of the incubation and precipitated protein was removed by centrifugation (15 min, 4 °C, 4,000 g). Concentration of the remaining test compound at the different time points was analyzed by HPLC-MS/MS (TSQ Quantum Access MAX, Thermo Fisher, Dreieich, Germany) and used to determine half -life (t1/2). Values are means of three"}, "[4]": {"assay": "Metabolic stability in human liver S9 fraction", "assay_type": "in vitro ADME", "conditions": "human liver S9, 1 μM compound", "method": "as §6, with “3). […]” for “3).”\nas §7, §8"}},
  "data": [
    {"smiles": "COc1ccc(-c2cc(C)c(-n3cc(-c4ccc(C(=O)O)cc4)nn3)cn2)c(Cl)c1", "note": "[Compound 20]", "values": [
      {"measurement": "Inhibition (EMSA, LBS1) @250 μM", "setting": "[1]; compound at 250 μM, LBS1 oligonucleotide, LANA aa 1008–1146 mutant", "result": 93, "unit": "%"},
      {"measurement": "IC50", "setting": "[1]; read-out: x0 of logistic fit, dose-dependent EMSA curve (converted), Fig S2, LBS1, curve with A2 95.7, assigned to LANA DBD mutant", "result": 43.7, "unit": "µM"},
      {"measurement": "solubility kinetic at 5 min", "setting": "Kinetic solubility", "result": "> 200", "unit": "µM"},
      {"measurement": "chromatographic logD", "setting": "Chromatographic LogD7.4", "result": 0.75},
      {"measurement": "IC50", "setting": "[2]", "result": 205, "unit": "µM"},
      {"measurement": "microsomal CLint at 1 µM", "setting": "[3]; read-out: MetStab Mouse Liver S9 Clint", "result": "< 5.8", "unit": "µL/min/mg"},
      {"measurement": "half-life at 1 µM", "setting": "[3]; read-out: MetStab Mouse Liver S9 t1/2", "result": "> 2", "unit": "h"},
      {"measurement": "microsomal CLint at 1 µM", "setting": "[4]; read-out: MetStab Human Liver S9 Clint", "result": "< 5.8", "unit": "µL/min/mg"},
      {"measurement": "half-life at 1 µM", "setting": "[4]; read-out: MetStab Human Liver S9 t1/2", "result": "> 2", "unit": "h"}
    ]}
  ]
}
